PubChem BioAssay AID743417 (Broad Institute, 2014)
Inconclusive results are not listed.

Tested on: Clone20 osteoblast Shn3 3'UTR firefly luciferase, 24 h
Test: Shn3 3'UTR reporter inhibitors, dose response, cell-based, Clone20 osteoblasts, luminescence, dry powder, set 2 (AID 743417)

SMILES	AC50 [µM]
C=C(C)[C@@H]1C2=CC(C(=O)OC)=C(C[C@H](C(=C)C)[C@H]3O[C@H]3C3=C[C@H]1OC3=O)O2	8.16
C=CCn1nc([N+](=O)[O-])nc1Sc1cccc2cccnc12	10.7
O=C(Nc1cc2c3c(c1)C1CCCC1CN3CC1CCCC21)c1ccc([N+](=O)[O-])cc1 (centres undefined)	2.2
COc1ccc(C(=O)Nc2nc3ccccc3s2)c(OC)c1	0.523
CCC(C)(O)C(=O)OC1C(=O)OC2CC3C(C)=CC(=O)C(O)C3(C)C3C4(O)OCC23C1C(C)C4O (centres undefined)	0.866
O=C(Nc1ccc(Cl)cc1)/C(=C/c1cccc(O)c1)c1nc2ccccc2s1	3.53
COc1ccc([C@@]23Oc4cc(OC)cc(OC)c4[C@]2(O)[C@H](O)[C@H](C(=O)N(C)C)[C@H]3c2ccccc2)cc1	< 0.26
O=C(Nc1ccc(F)c(F)c1)c1ccc(F)c(S(=O)(=O)N2CCC3(CC2)OCCO3)c1	12.2
CCCCCn1c(N2CCN(c3cccc(Cl)c3)CC2)nc2c1c(=O)[nH]c(=O)n2C	21.8
Cc1[nH]nc2c1-c1nc3ccccc3nc1C(C)(C)C2	4.2
CCCCC(=O)NC(c1ccc(Cl)cc1)c1ccc2cccnc2c1O (centres undefined)	0.772
Cc1ccn2c(Nc3ccccc3)c(-c3ccccn3)nc2c1	2.31
CC(C)(C)Nc1nc(-c2ccccn2)nc2ccccc12	1.86
CCOc1cc(C(=O)CSc2nnc(CNc3ccc(Cl)cc3)o2)ccc1NC(=O)CC	7.73
CCOC(=O)/C(=C\c1ccc([N+](=O)[O-])cc1)C(=O)c1cc(C(C)=O)c(Nc2ccccc2)s1	2.47
Cc1ccc(S(=O)(=O)NCc2ccc(C(=O)N3CCN(c4ccc([N+](=O)[O-])cc4)CC3)cc2)cc1	3.79
CC(C)C(=O)NC(c1ccc(Cl)cc1Cl)c1ccc2cccnc2c1O (centres undefined)	0.691
C=C1CC(COc2cc(=O)oc3ccccc23)(c2ccccc2)OC1=O (centres undefined)	3.93
O=c1c2ccccc2sc2ccc(C#CC3(O)CCCCC3)cc12	< 0.26
COc1ccc(-n2nnnc2-c2cnc(N3CCCC3)nc2C(F)(F)F)cc1	4.75
CC(C)C[C@H](N)c1nnc(S(=O)(=O)Cc2ccc(F)cc2)o1	9.02
COc1ccc(-c2cc3nc(C)n(N)c(=O)c3s2)cc1	1.13
CN(C)C1=NC[C@H](Cc2ccccc2)N1CCCC1CCCC1	2.63
COc1ccc(C(NC(=O)C(C)C)c2ccc3cccnc3c2O)cc1 (centres undefined)	1.35
CC[C@H]1CN2CCc3cc(OC)c(OC)cc3C2C[C@@H]1C[C@H]1NCCc2cc(OC)c(OC)cc21 (some centres undefined)	< 0.26

SMILES	AC50 [µM]
C=C1C(=O)O[C@H]2[C@H]1[C@H](OC(=O)CC(=O)O[C@@H]1C[C@@H](C)[C@@H]3C=CC(=O)[C@@]3(C)[C@H]3OC(=O)C(=C)[C@H]13)C[C@@H](C)[C@H]1C=CC(=O)[C@]12C	1.54
CCN1CCN(Cc2ccc(NC(=O)c3ccc(C)c(NC(=O)c4cncc(-c5cccs5)c4)c3)cc2C(F)(F)F)CC1	0.808
Cc1ccccc1C(=O)N1CCN(c2ccc(NC(=O)c3ccc([N+](=O)[O-])o3)cc2)CC1	0.864
O=C(Nc1ccc([N+](=O)[O-])cc1Cl)c1cc(Cl)ccc1O	3
CCc1ccc(CNC(=O)c2cc3c(C)nc4ccccc4c3o2)cc1	2.02
COc1ccc(-n2ncc3c(N4CCCCC4)ncnc32)cc1	2.87
CC(C)C[C@@H](CN1CCCC1CN1C(=S)NC[C@@H]1Cc1ccc(O)cc1)N1C[C@H](Cc2ccc(O)cc2)N(CC2CCCCCC2)C1=S (some centres undefined)	18.8
O=C(Nc1ccc(Cl)c(Cl)c1)Nc1ccc(N2CCCC2)c(S(=O)(=O)Nc2ccccc2Cl)c1	5.13
Cc1cc(S(=O)(=O)c2ccc([N+](=O)[O-])cn2)ccc1Br	3.69
COc1ccc(CCNc2cc(N3CCN(C(=O)c4ccccc4F)CC3)ccc2[N+](=O)[O-])cc1OC	1.26
CN(CCOc1ccc(Cl)cc1)C(=O)c1cccc(S(=O)(=O)N2CCN(c3ccc(F)cc3)CC2)c1	1.77
Cc1ccc2nc(-c3cccc(SC4CCCCC4)c3)c(NCc3ccccc3)n2c1	3.53
O=C(Nc1cccc(C(F)(F)F)c1)Nc1ccc(N2CCCC2)c(S(=O)(=O)Nc2ccccc2Cl)c1	4.42
CCCCC1(Cc2ccc([N+](=O)[O-])cc2)C(=O)N(c2ccccc2)N(c2ccccc2)C1=O	10.2
O=C(Nc1ccc(Cl)cc1)c1cc(S(=O)(=O)N2CCOCC2)cs1	4.23
CCn1c(=NC(=O)CCS(=O)(=O)c2ccccc2)sc2cccc(OC)c21	1.28
S=C(NCCCCN(Cc1ccc(Cl)cc1)c1ccc(Br)cn1)NCCCc1cnc[nH]1	7.24
CC(OC(=O)c1ccc(S(C)(=O)=O)c([N+](=O)[O-])c1)C(=O)NC1C2CC3CC(C2)CC1C3 (centres undefined)	1.4
NS(=O)(=O)c1ccc(CCNCc2cc(Br)ccc2OCc2ccccc2F)cc1	4.65
O=C(NCCc1ccccc1)c1ccc2c(c1)OCCO2	2.16
CCN(CC)S(=O)(=O)c1cc(NC(=O)CNc2cccc(S(=O)(=O)N3CCOCC3)c2)ccc1C	2.97
CCCC(=O)NC(c1ccc(C(C)C)cc1)c1ccc2cccnc2c1O (centres undefined)	0.47
Cc1cc(C(=O)NC2CCCc3c2cnn3-c2cccc(C)c2C)n(C)n1 (centres undefined)	< 0.26
COc1cc(C2c3cc4c(cc3C(OC3OC5COC(c6cccs6)OC5C(O)C3O)C3COC(=O)C23)OCO4)cc(OC)c1O (centres undefined)	1.11
